Laboratory results published in ChEMBL document CHEMBL4043111, “Asymmetric synthesis and evaluation of epoxy-α-acyloxycarboxamides as selective inhibitors of cathepsin L” (Bioorg Med Chem, 2017).
Where “and” joins values, the source holds several entries; their conditions need not be identical. Equal entries are not always repeated. Calls of active or inactive are those of the source. The rule behind the calls is not given here.

What was measured:
Procathepsin L [1] = biological target: T1, Procathepsin L (Homo sapiens, UniProt P07711); assay: Inhibition of human liver cathepsin L peincubated for 5 mins followed by Z-FR-MCA addition by spectrofluorimetric method
Target sequence in this assay (P07711 whole entry): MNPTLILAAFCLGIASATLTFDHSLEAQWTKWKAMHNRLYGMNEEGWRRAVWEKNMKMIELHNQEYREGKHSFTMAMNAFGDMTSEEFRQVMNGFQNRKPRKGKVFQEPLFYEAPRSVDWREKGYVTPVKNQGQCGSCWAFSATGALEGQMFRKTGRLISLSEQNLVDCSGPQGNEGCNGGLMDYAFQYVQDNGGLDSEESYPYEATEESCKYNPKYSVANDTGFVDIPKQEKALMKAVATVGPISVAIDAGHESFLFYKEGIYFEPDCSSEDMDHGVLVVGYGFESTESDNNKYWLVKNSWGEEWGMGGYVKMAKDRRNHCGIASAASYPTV

Procathepsin L [2] = biological target: T1, Procathepsin L; assay: Reversible inhibition of human liver cathepsin L peincubated for 30 mins followed by addition of 4 uM of substrate Z-FR-MCA measured after 10 mins by spectrofluorimetric method
Target sequence in this assay (P07711 whole entry): as above

Procathepsin L [3] = biological target: T1, Procathepsin L; assay: Reversible inhibition of human liver cathepsin L peincubated for 30 mins followed by addition of 3.5 uM of substrate Z-FR-MCA measured after 10 mins by spectrofluorimetric method
Target sequence in this assay (P07711 whole entry): as above

Procathepsin L [4] = biological target: T1, Procathepsin L; assay: Reversible inhibition of human liver cathepsin L peincubated for 30 mins followed by addition of 6 uM of substrate Z-FR-MCA measured after 10 mins by spectrofluorimetric method
Target sequence in this assay (P07711 whole entry): as above

[5] = biological target: T2, Cathepsin L2 (Homo sapiens) (UniProt O60911); assay: Inhibition of cathepsin V (unknown origin) at 25 uM peincubated for 5 mins followed by Z-FR-MCA addition by spectrofluorimetric method relative to control
T2 sequence (whole entry): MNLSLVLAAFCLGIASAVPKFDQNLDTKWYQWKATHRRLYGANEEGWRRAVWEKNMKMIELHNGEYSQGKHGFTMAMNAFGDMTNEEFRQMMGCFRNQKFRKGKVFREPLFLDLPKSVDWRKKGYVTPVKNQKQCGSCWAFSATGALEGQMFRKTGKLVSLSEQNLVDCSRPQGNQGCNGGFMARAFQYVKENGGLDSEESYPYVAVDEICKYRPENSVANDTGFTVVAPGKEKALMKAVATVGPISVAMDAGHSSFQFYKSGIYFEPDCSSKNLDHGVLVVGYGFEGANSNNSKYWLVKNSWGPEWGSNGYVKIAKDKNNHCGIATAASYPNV

Procathepsin L [6] = biological target: T1, Procathepsin L; assay: Reversible inhibition of human liver cathepsin L peincubated for 30 mins followed by addition of 5.5 uM of substrate Z-FR-MCA measured after 10 mins by spectrofluorimetric method
Target sequence in this assay (P07711 whole entry): as the sequence (P07711 whole entry) above

[7] = biological target: T3, Cathepsin K (Homo sapiens) (UniProt P43235); assay: Inhibition of cathepsin K (unknown origin) at 25 uM peincubated for 5 mins followed by Z-FR-MCA addition by spectrofluorimetric method relative to control
T3 sequence (whole entry): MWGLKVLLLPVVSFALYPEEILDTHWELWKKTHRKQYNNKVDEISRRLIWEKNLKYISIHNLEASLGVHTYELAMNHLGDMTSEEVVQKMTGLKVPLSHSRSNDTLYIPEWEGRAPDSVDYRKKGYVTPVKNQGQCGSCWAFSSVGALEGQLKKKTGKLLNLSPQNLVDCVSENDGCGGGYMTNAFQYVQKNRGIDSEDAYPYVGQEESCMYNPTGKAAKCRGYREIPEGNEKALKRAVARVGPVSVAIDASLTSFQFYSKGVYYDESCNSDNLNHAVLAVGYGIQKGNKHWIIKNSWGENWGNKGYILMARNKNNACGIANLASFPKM

Procathepsin L [8] = biological target: T1, Procathepsin L; assay: Reversible inhibition of human liver cathepsin L peincubated for 30 mins followed by addition of 7 uM of substrate Z-FR-MCA measured after 10 mins by spectrofluorimetric method
Target sequence in this assay (P07711 whole entry): as the sequence (P07711 whole entry) above

Procathepsin L [9] = biological target: T1, Procathepsin L; assay: Inhibition of human liver cathepsin L at 25 uM peincubated for 5 mins followed by Z-FR-MCA addition by spectrofluorimetric method relative to control
Target sequence in this assay (P07711 114-333 limits assumed): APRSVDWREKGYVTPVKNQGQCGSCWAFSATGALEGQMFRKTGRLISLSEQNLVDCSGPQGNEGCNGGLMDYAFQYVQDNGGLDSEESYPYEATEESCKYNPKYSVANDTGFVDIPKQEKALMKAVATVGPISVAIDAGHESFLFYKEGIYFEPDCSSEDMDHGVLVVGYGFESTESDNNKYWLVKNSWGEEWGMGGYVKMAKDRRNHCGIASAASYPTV

Procathepsin L [10] = biological target: T1, Procathepsin L; assay: Reversible inhibition of human liver cathepsin L peincubated for 30 mins followed by addition of 4.5 uM of substrate Z-FR-MCA measured after 10 mins by spectrofluorimetric method
Procathepsin L [11] = biological target: T1, Procathepsin L; assay: Reversible inhibition of human liver cathepsin L peincubated for 30 mins followed by addition of 5 uM of substrate Z-FR-MCA measured after 10 mins by spectrofluorimetric method
Procathepsin L [12] = biological target: T1, Procathepsin L; assay: Reversible inhibition of human liver cathepsin L peincubated for 30 mins followed by addition of 8 uM of substrate Z-FR-MCA measured after 10 mins by spectrofluorimetric method
Procathepsin L [13] = biological target: T1, Procathepsin L; assay: Reversible inhibition of human liver cathepsin L peincubated for 30 mins followed by addition of 9 uM of substrate Z-FR-MCA measured after 10 mins by spectrofluorimetric method
Procathepsin L [14] = biological target: T1, Procathepsin L; assay: Uncompetitive inhibition of cathepsin L (unknown origin) peincubated for 30 mins followed by substrate Z-FR-MCA addition measured after 10 mins by spectrofluorimetric method
Cathepsin K = biological target: T4, Cathepsin K (Homo sapiens, UniProt P43235); assay: Inhibition of cathepsin K (unknown origin) peincubated for 5 mins followed by Z-FR-MCA addition by spectrofluorimetric method
T4 sequence (P43235 whole entry): T3 sequence (whole entry)

CCCCCCCC1OC1C(OC(=O)c1ccc(I)cc1)C(=O)NC1CCCCC1 (stereo not given)
IC50 (Procathepsin L [1]): 2.2 µM and 4.28 µM

CCCCCCC[C@H]1O[C@@H]1C(OC(=O)c1ccc(I)cc1)C(=O)NC1CCCCC1 (mixture of isomers)
IC50 (Procathepsin L [2]): 11.5 µM | IC50 (Procathepsin L [3]): 16.9 µM | IC50 (Procathepsin L [4]): 5.26 µM | inhibition [5]: 30.8% | IC50 (Procathepsin L [6]): 5.13 µM | inhibition [7]: 78% | IC50 (Procathepsin L [8]): 7.17 µM | inhibition (Procathepsin L [9]): 98.5% | IC50 (Procathepsin L [10]): 11.1 µM | IC50 (Procathepsin L [11]): 9.78 µM | IC50 (Procathepsin L [12]): 5.75 µM | IC50 (Procathepsin L [13]): 6.09 µM | Ki (Procathepsin L [14]): 1.33 µM | IC50 (Cathepsin K): 5.72 µM

CCCCCCC[C@H]1O[C@@H]1C(OC(=O)c1ccccc1)C(=O)NC(C)(C)C (mixture of isomers)
inhibition [5]: 43.5% | inhibition [7]: 69.1% | inhibition (Procathepsin L [9]): 86.4% | IC50 (Cathepsin K): 12.5 µM

CCCCCCCCNC(=O)C(OC(=O)CCCCCBr)[C@H]1O[C@@H]1c1ccccc1[N+](=O)[O-] (mixture of isomers)
inhibition (Procathepsin L [9]): 84% | IC50 (Procathepsin L [1]): 8.55 µM

CC(C)(C)NC(=O)C(OC(=O)c1ccccc1)[C@H]1O[C@@H]1c1ccccc1[N+](=O)[O-] (mixture of isomers)
inhibition [5]: 21.3% | inhibition [7]: 21.5% | inhibition (Procathepsin L [9]): 10.5%

CCCC(=O)OC(C(=O)NCc1ccccc1)[C@H]1O[C@@H]1c1ccccc1[N+](=O)[O-] (mixture of isomers)
inhibition [5]: 3.9% | inhibition [7]: 0% | inhibition (Procathepsin L [9]): 2.9%

CCCCCCC[C@H]1O[C@@H]1C(OC(=O)C1CCCCC1)C(=O)NC(C)(C)C (mixture of isomers)
inhibition (Procathepsin L [9]): inactive

CCCCCCC[C@H]1O[C@@H]1C(OC(=O)C1CCCCC1)C(=O)NCCCC (mixture of isomers)
inhibition (Procathepsin L [9]): 70%

CCCCCCC[C@H]1O[C@@H]1C(OC(=O)CC(C)C)C(=O)NCCCC (mixture of isomers)
inhibition (Procathepsin L [9]): inactive

CCCCCCC[C@H]1O[C@@H]1C(OC(=O)CC(C)C)C(=O)NCc1ccccc1 (mixture of isomers)
inhibition (Procathepsin L [9]): 43%

CCCCCCC[C@H]1O[C@@H]1C(OC(=O)CCCCCBr)C(=O)NC(C)(C)C (mixture of isomers)
inhibition (Procathepsin L [9]): inactive

CCCCCCC[C@H]1O[C@@H]1C(OC(=O)CCCCCBr)C(=O)NC1CCCCC1 (mixture of isomers)
inhibition (Procathepsin L [9]): 69%

CCCCCCC[C@H]1O[C@@H]1C(OC(=O)CCCCCBr)C(=O)NCCCC (mixture of isomers)
inhibition (Procathepsin L [9]): 69%

CCCCCCC[C@H]1O[C@@H]1C(OC(=O)[C@H]1CCCN1C(=O)OC(C)(C)C)C(=O)NC(C)(C)C (mixture of isomers)
inhibition [5]: 0% | inhibition [7]: 38.7% | inhibition (Procathepsin L [9]): 67.3%

CCCCCCC[C@H]1O[C@@H]1C(OC(=O)c1ccc(I)cc1)C(=O)NC(C)(C)C (mixture of isomers)
inhibition (Procathepsin L [9]): 65%

CCCCCCC[C@H]1O[C@@H]1C(OC(=O)c1ccc(I)cc1)C(=O)NCCCC (mixture of isomers)
inhibition (Procathepsin L [9]): 74%

CCCCCCC[C@H]1O[C@@H]1C(OC(=O)c1ccccc1)C(=O)NCC(=O)OC (mixture of isomers)
inhibition (Procathepsin L [9]): inactive

CCCCCCCC1OC1C(OC(=O)c1ccc(I)cc1)C(=O)NC1CCCCC1 (mixture of isomers; form 1)
IC50 (Procathepsin L [1]): 1.13 µM

CCCCCCCC1OC1C(OC(=O)c1ccc(I)cc1)C(=O)NC1CCCCC1 (mixture of isomers; form 2)
IC50 (Procathepsin L [1]): 2.02 µM

CCCCCCC[C@H]1O[C@@H]1C(OC(=O)[C@@H]1CCCN1C(=O)OC(C)(C)C)C(=O)NC(C)(C)C (single isomer, unassigned)
inhibition [5]: 0% | inhibition [7]: 39.3% | inhibition (Procathepsin L [9]): 52.6%
